Laboratory results taken from patent US20140221340A1 (KYOWA HAKKO KIRIN CO., LTD., priority 2011, published 2014).

Biological target: T1, human CCR10 (Homo sapiens, UniProt P46092)
T1 construct: expressed in transfected cells; host or cells: KJMGER8 cell (cell line derived from Namalwa cell); expression induced with 10 nmol/L β-estradiol
T1 sequence (P46092 1-362): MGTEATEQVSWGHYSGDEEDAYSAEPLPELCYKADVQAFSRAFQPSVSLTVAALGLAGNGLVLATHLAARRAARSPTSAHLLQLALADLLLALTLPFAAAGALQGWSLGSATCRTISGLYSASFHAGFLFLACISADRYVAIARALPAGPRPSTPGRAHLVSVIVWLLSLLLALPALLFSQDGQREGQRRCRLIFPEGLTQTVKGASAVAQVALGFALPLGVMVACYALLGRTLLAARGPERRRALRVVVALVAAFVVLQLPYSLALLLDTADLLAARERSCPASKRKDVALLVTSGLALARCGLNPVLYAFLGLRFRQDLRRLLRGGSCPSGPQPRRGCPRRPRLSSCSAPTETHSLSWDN
Test: Calcium assay of human CCR10 (inhibition of CTACK-induced increase in intracellular calcium ion concentration in hCCR10G16 cells)
Type: cell-based
Details: test compound 100 nmol/L; human recombinant CTACK; hCCR10G16 cells (KJMGER8/Namalwa-derived, Gα16 co-expressed); FLIPR or FDSS; read-out: Inhibitory rate (%) for an increase in calcium ion concentration
Method in brief: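 KJMGER8-derived hCCR10G16 cells (human CCR10 plus Gα16, expression induced 24 h with 10 nmol/L β-estradiol) were dye-loaded and preincubated with compound for 30 min at 37 °C, then stimulated with CTACK (300 nmol/L stock). Calcium flux over ~5 min (max−min fluorescence) gave percent inhibition versus DMSO control.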

inhibition at 0.1 µM [%]	SMILES
> 100	CCNC(=O)NS(=O)(=O)c1cnn2c(Nc3ccccc3Cl)c(C(=O)N3CCC(c4ccc(F)cc4)CC3)cnc12 [a-10, 7-(2-Chlorophenylamino)-N-(ethylcarbamoyl)-6-[4-(4-fluorophenyl)piperidine-1-carbonyl]pyrazolo[1,5-a]pyrimidine-3-sulfonamide]
97	CCC(=O)NS(=O)(=O)c1cnn2c(Nc3ccc(Cl)cc3Cl)c(C(=O)N3CCC(c4ccc(F)cc4)CC3)cnc12 [a-19, N-{7-(2,4-Dichlorophenylamino)-6-[4-(4-fluorophenyl)piperidine-1-carbonyl]pyrazolo[1,5-a]pyrimidin-3-ylsulfonyl}propionamide]
> 100	Cc1ccc(F)c(Nc2c(C(=O)N3CCC(c4ccc(F)cc4)CC3)cnc3c(S(=O)(=O)NC(=O)NC4CC4)cnn23)c1 [a-32, 7-(2-Fluoro-5-methylphenylamino)-N-(cyclopropylcarbamoyl)-6-[4-(4-fluorophenyl)piperidine-1-carbonyl]pyrazolo[1,5-a]pyrimidine-3-sulfonamide]
